Test results reported in patent US8574563B2 (Bristol-Myers Squibb Company, priority 2006, dated 2013).

Tested on: HCV 1b-377-neo replicon cells
Experiment: HCV replicon assay, HCV 1b-377-neo replicon cells (1b FRET)
Assay type: cell-based, Hepatitis C virus genotype 1b
Conditions: Hepatitis C virus, HCV 1b-377-neo replicon cells; HCV 1b genotype; read-out: EC50 range against HCV 1b (Table 2, Range)
How it was run: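 Compounds were tested in genotype 1b subgenomic replicon cells carrying a neomycin marker, alongside a matched replicon line with an NS5A Y2065H substitution that confers resistance to a reference NS5A inhibitor.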

Compound | EC50 [nM]
CO[C@@H](C(=O)N1CCC[C@H]1c1ncc(-c2ccc(-c3ccc(-c4cnc([C@@H]5CCCN5C(=O)[C@@H](c5ccccc5)N5CCCCC5)[nH]4)cc3)cc2)[nH]1)c1ccccc1 [Example 107-19, 1-((1R)-2-((2S)-2-(5-(4′-(2-((2S)-1-((2R)-2-methoxy-2-phenylacetyl)-2-pyrrolidinyl)-1H-imidazol-5-yl)-4-biphenylyl)-1H-imidazol-2-yl)-1-pyrrolidinyl)-2-oxo-1-phenylethyl) piperidine] | 0.001 to 0.999
CO[C@H](C(=O)N1CCC[C@H]1c1ncc(-c2ccc(-c3ccc(-c4cnc([C@@H]5CCCN5C(=O)[C@@H](c5ccccc5)N5CCCCC5)[nH]4)cc3)cc2)[nH]1)c1ccccc1 [Example 107-20, 1-((1R)-2-((2S)-2-(5-(4′-(2-((2S)-1-((2S)-2-methoxy-2-phenylacetyl)-2-pyrrolidinyl)-1H-imidazol-5-yl)-4-biphenylyl)-1H-imidazol-2-yl)-1-pyrrolidinyl)-2-oxo-1-phenylethyl) piperidine] | 0.001 to 0.999
O=C([C@@H](c1ccccc1)N1CCCCC1)N1CCC[C@H]1c1ncc(-c2ccc(-c3ccc(-c4cnc([C@@H]5CCCN5C(=O)C5(c6ccccc6)CC5)[nH]4)cc3)cc2)[nH]1 [Example 107-22, 1-((1R)-2-oxo-1-phenyl-2-((2S)-2-(5-(4′-(2-((2S)-1-((1-phenylcyclopropyl)carbonyl)-2-pyrrolidinyl)-1H-imidazol-5-yl)-4-biphenylyl)-1H-imidazol-2-yl)-1-pyrrolidinyl)ethyl)piperidine] | 0.001 to 0.999
CN(C)Cc1ccccc1CC(=O)N1CCC[C@H]1c1ncc(-c2ccc(-c3ccc(-c4cnc([C@@H]5CCCN5C(=O)[C@@H](c5ccccc5)N5CCCCC5)[nH]4)cc3)cc2)[nH]1 [Example 107-23, N,N-dimethyl-1-(2-(2-oxo-2-((2S)-2-(5-(4′-(2-((2S)-1-((2R)-2-phenyl-2-(1-piperidinyl)acetyl)-2-pyrrolidinyl)-1H-imidazol-5-yl)-4-biphenylyl)-1H-imidazol-2-yl)-1-pyrrolidinyl)ethyl)phenyl) methanamine] | 0.001 to 0.999
Cc1cc(CC(=O)N2CCC[C@H]2c2ncc(-c3ccc(-c4ccc(-c5cnc([C@@H]6CCCN6C(=O)[C@@H](c6ccccc6)N6CCCCC6)[nH]5)cc4)cc3)[nH]2)on1 [Example 107-24, 1-((1R)-2-((2S)-2-(5-(4′-(2-((2S)-1-((3-methyl-5-isoxazolyl)acetyl)-2-pyrrolidinyl)-1H-imidazol-5-yl)-4-biphenylyl)-1H-imidazol-2-yl)-1-pyrrolidinyl)-2-oxo-1-phenylethyl) piperidine] | 0.001 to 0.999
Cc1nc(CC(=O)N2CCC[C@H]2c2ncc(-c3ccc(-c4ccc(-c5cnc([C@@H]6CCCN6C(=O)[C@@H](c6ccccc6)N6CCCCC6)[nH]5)cc4)cc3)[nH]2)cs1 [Example 107-25, 1-((1R)-2-((2S)-2-(5-(4′-(2-((2S)-1-((2-methyl-1,3-thiazo1-4-yl)acetyl)-2-pyrrolidinyl)-1H-imidazol-5-yl)-4-biphenylyl)-1H-imidazol-2-yl)-1-pyrrolidinyl)-2-oxo-1-phenylethyl) piperidine] | 0.001 to 0.999
O=C(Cc1ccccc1CN1CCOCC1)N1CCC[C@H]1c1ncc(-c2ccc(-c3ccc(-c4cnc([C@@H]5CCCN5C(=O)[C@@H](c5ccccc5)N5CCCCC5)[nH]4)cc3)cc2)[nH]1 [Example 107-26, 4-(2-(2-oxo-2-((2S)-2-(5-(4′-(2-((2S)-1-((2R)-2-phenyl-2-(1-piperidinyl)acetyl)-2-pyrrolidinyl)-1H-imidazol-5-yl)-4-biphenylyl)-1H-imidazol-2-yl)-1-pyrrolidinyl)ethyl)benzyl) morpholine] | 0.001 to 0.999
O=C(Cc1ccccc1CN1CCCC1)N1CCC[C@H]1c1ncc(-c2ccc(-c3ccc(-c4cnc([C@@H]5CCCN5C(=O)[C@@H](c5ccccc5)N5CCCCC5)[nH]4)cc3)cc2)[nH]1 [Example 107-27, 1-((1R)-2-oxo-1-phenyl-2-((2S)-2-(5-(4′-(2-((2S)-1-((2-(1-pyrrolidinylmethyl)phenyl)acetyl)-2-pyrrolidinyl)-1H-imidazol-5-yl)-4-biphenylyl)-1H-imidazol-2-yl)-1-pyrrolidinyl)ethyl)piperidine] | 0.001 to 0.999
